From ChEMBL document CHEMBL1201862, “PubChem BioAssay data set” (2004)
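Tested at 5 concentrations; 48 h exposure; 96-well plates; endpoints linearly interpolated, else capped at highest concentration. Here, GI50 denotes the concentration required for 50% inhibition of growth.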 The source made the active and inactive calls. Cut-off read from the data, not from the text of the source: active = GI50 up to about 1.1 µM and inactive = higher.

What was measured:
Test in all cases: DTP human tumour cell line panel, 48 h
786-0 = system: 786-0
A498 = system: A498
A549 = system: A549
ACHN = system: ACHN
CAKI-1 = system: CAKI-1
CCRF-CEM = system: CCRF-CEM
COLO 205 = system: COLO 205
DU-145 = system: DU-145
EKVX = system: EKVX
HCC 2998 = system: HCC 2998
HCT-116 = system: HCT-116
HCT-15 = system: HCT-15
HL-60 = system: HL-60
HOP-62 = system: HOP-62
HOP-92 = system: HOP-92
HT-29 = system: HT-29
Hs-578T = system: Hs-578T
IGROV-1 = system: IGROV-1
K562 = system: K562
KM12 = system: KM12
LOX IMVI = system: LOX IMVI
M14 = system: M14
MCF7 = system: MCF7
MDA-MB-231 = system: MDA-MB-231
MDA-MB-435 = system: MDA-MB-435
MDA-N = system: MDA-N
MOLT-4 = system: MOLT-4
Malme-3M = system: Malme-3M
NCI-H23 = system: NCI-H23
NCI-H460 = system: NCI-H460
NCI-H522 = system: NCI-H522
NCI/ADR-RES = system: NCI/ADR-RES
OVCAR-3 = system: OVCAR-3
OVCAR-4 = system: OVCAR-4
OVCAR-5 = system: OVCAR-5
OVCAR-8 = system: OVCAR-8
PC-3 = system: PC-3
RPMI-8226 = system: RPMI-8226
SF-268 = system: SF-268
SF-295 = system: SF-295
SF-539 = system: SF-539
SK-MEL-28 = system: SK-MEL-28
SK-MEL-2 = system: SK-MEL-2
SK-MEL-5 = system: SK-MEL-5
SK-OV-3 = system: SK-OV-3
SN12C = system: SN12C
SNB-19 = system: SNB-19
SNB-75 = system: SNB-75
SR = system: SR
SW-620 = system: SW-620
T47D = system: T47D
TK-10 = system: TK-10
U-251 = system: U-251
UACC-257 = system: UACC-257
UACC-62 = system: UACC-62
UO-31 = system: UO-31

For `CC1(C)CC[C@]2(C(=O)O)CC[C@]3(C)C(=CCC4=C5C[C@H](O)[C@H](O)[C@@](C)(CO)[C@@]5(C)CC[C@]43C)[C@@H]2C1`, the GI50 (786-0) was 31.8 µM (inactive), the GI50 (A498) was 17.8 µM (inactive) and the GI50 (A549) was 38.5 µM (inactive). For the same compound, the GI50 (ACHN) was > 100 µM (inactive), the GI50 (CAKI-1) was 28.1 µM (inactive) and the GI50 (CCRF-CEM) was 0.944 µM (active). For the same compound, the GI50 (COLO 205) was 15.2 µM (inactive), the GI50 (DU-145) was 33.4 µM (inactive) and the GI50 (EKVX) was 51.5 µM (inactive). For the same compound, the GI50 (HCC 2998) was 24 µM (inactive), the GI50 (HCT-116) was 31.3 µM (inactive) and the GI50 (HCT-15) was 38.9 µM. The GI50 (HL-60) was 6.05 µM (inactive), the GI50 (HOP-62) was > 100 µM (inactive) and the GI50 (HOP-92) was > 100 µM (inactive). The GI50 (HT-29) was 41.5 µM (inactive), the GI50 (Hs-578T) was 39.9 µM (inactive) and the GI50 (IGROV-1) was 36.9 µM (inactive). The GI50 (K562) was 62.8 µM (inactive), the GI50 (KM12) was 38.9 µM (inactive) and the GI50 (LOX IMVI) was 35.7 µM (inactive). The GI50 (M14) was 66.2 µM (inactive), the GI50 (MCF7) was 44.6 µM (inactive) and the GI50 (MDA-MB-231) was > 100 µM (inactive). For the same compound, the GI50 (MDA-MB-435) was 62.1 µM (inactive), the GI50 (MDA-N) was 47.4 µM (inactive) and the GI50 (MOLT-4) was 47.3 µM (inactive). The GI50 (Malme-3M) was 69.2 µM (inactive), the GI50 (NCI-H23) was 37.9 µM (inactive) and the GI50 (NCI-H460) was 30.4 µM (inactive). The GI50 (NCI-H522) was 46.2 µM (inactive), the GI50 (NCI/ADR-RES) was 43.4 µM (inactive) and the GI50 (OVCAR-3) was > 100 µM (inactive). The GI50 (OVCAR-4) was 36.7 µM (inactive), the GI50 (OVCAR-5) was > 100 µM (inactive) and the GI50 (OVCAR-8) was 44.3 µM (inactive). For the same compound, the GI50 (PC-3) was 59.3 µM (inactive), the GI50 (RPMI-8226) was 43.8 µM (inactive) and the GI50 (SF-268) was 51.4 µM (inactive). The GI50 (SF-295) was 33.7 µM (inactive), the GI50 (SF-539) was 56.9 µM (inactive) and the GI50 (SK-MEL-28) was > 100 µM (inactive). The GI50 (SK-MEL-2) was 80.5 µM (inactive), the GI50 (SK-MEL-5) was 22.9 µM (inactive) and the GI50 (SK-OV-3) was > 100 µM (inactive). The GI50 (SN12C) was 39.6 µM (inactive), the GI50 (SNB-19) was 16 µM (inactive) and the GI50 (SNB-75) was 26.7 µM (inactive). For the same compound, the GI50 (SR) was > 100 µM (inactive), the GI50 (SW-620) was 95.1 µM (inactive) and the GI50 (T47D) was 28.4 µM (inactive). For the same compound, the GI50 (TK-10) was 53.6 µM (inactive), the GI50 (U-251) was 48.2 µM (inactive) and the GI50 (UACC-257) was 71 µM (inactive). For the same compound, the GI50 (UACC-62) was 46 µM (inactive) and the GI50 (UO-31) was 47.1 µM (inactive).
